Reference: patent US20160040126A1, “REGULATION OF DIFFERENTIATION INTO DOPAMINERGIC NEURONS BY METALLOPROTEASE” (Korea University Research and Business Foundation, priority 2012, published 2016)

Experiments:
ERK = experiment: Phosphorylation of ERK in midbrain neurons; format: cell-based, mice; conditions: for effect of the agent on the phosphorylation of ERK by quinpirole: co-treatment with quinpirole, or siRNA knockdown before quinpirole; for effect of the agent on the phosphorylation of ERK by EGF: co-treatment with EGF
[1] = system: midbrain neurons derived from normal mice and D2R−/− mice; experiment: Differentiation of midbrain neurons into dopaminergic neural cells (TH immunostaining: number of TH-positive cells, neurite length, neurite number); format: cell-based; conditions: for effect of the agent on the development of dopaminergic neural cells by EGF+quinpirole: co-treatment with EGF+quinpirole, normal mice and D2R−/− mice; for effect of the agent on the differentiation/development of dopaminergic neural cells by EGF: co-treatment with EGF, or siRNA knockdown before EGF
Experimental: Midbrain neurons derived from normal mice and D2R−/− mice were treated with each of EGF, EGF+haloperidol, EGF+AG1478 and EGF+PD98059, and then stained with TH by an immunostaining technique. Then, the number of TH-positive cells, the length of neurites and the number of neurites in the midbrain neurons were compared between EGF, EGF+haloperidol, EGF+AG1478 and EGF+PD98059 to determine the abilities to induce differentiation into dopaminergic neural cells.
Then, the number of TH-positive cells, the length of neurites and the number of neurites in the midbrain neurons were compared to determine the abilities to induce differentiation into dopaminergic neural cells.

| Compound | effect of the agent on the phosphorylation of ERK by quinpirole (ERK) | effect of the agent on the development of dopaminergic neural cells by EGF+quinpirole [1] | effect of the agent on the differentiation/development of dopaminergic neural cells by EGF ([1]; midbrain neurons) | effect of the agent on the phosphorylation of ERK by EGF (ERK) | effect of the agent on the development of dopaminergic neural cells by quinpirole ([1]; co-treatment with quinpirole, or siRNA knockdown before quinpirole, midbrain neurons) | phosphorylation of ERK by the agent (ERK; compared to that in the control) [%] | differentiation of dopaminergic neural cells from midbrain neurons ([1]; treated with the agent alone, normal mouse and D2R−/− mouse midbrain neurons, TH immunostaining) |
| --- | --- | --- | --- | --- | --- | --- | --- |
| COc1cc2ncnc(Nc3cccc(Cl)c3)c2cc1OC [AG1478] | inhibited | inhibited to the basal level | completely blocked |  |  |  |  |
| CNC(=O)[C@H](Cc1c[nH]c2ccccc12)NC(=O)[C@H](CC(=O)NO)CC(C)C [GM6001, (2S)—N4-hydroxy-N1-[(1S)-1-(1H-indol-3-ylmethyl)-2-(methylamino)-2-oxoethyl]-2-isobutylsuccinamide] | inhibited to the basal level |  | not inhibited | not influenced | inhibited |  |  |
| COc1cccc(-c2cc(=O)c3ccccc3o2)c1N [PD98059] |  |  | completely blocked |  |  |  |  |
| O=C(CCCN1CCC(O)(c2ccc(Cl)cc2)CC1)c1ccc(F)cc1 [haloperidol] |  | not inhibited | not blocked | not inhibited |  |  |  |
| EGF: epidermal growth factor (NSDSECPLSHDGYCLHDGVCMYIEALDKYACNCVVGYIGERCQYRDLKWWELR; Epidermal growth factor; UniProt P01133 971-1023, looked up) |  |  |  |  |  | 417 | promoted |
